Data reported in ChEMBL document CHEMBL3217437, “The p53-MDM2/MDMX axis - A chemotype perspective” (Medchemcomm, 2011).

What was measured:
[1] = molecular target: T1, Tumour suppressor p53/oncoprotein Mdm2 (Homo sapiens, UniProt P04637+Q00987); assay: Inhibition of p53 interaction to MDM2 (unknown origin); assay type: protein assay
Target sequence in this assay (P04637 whole entry): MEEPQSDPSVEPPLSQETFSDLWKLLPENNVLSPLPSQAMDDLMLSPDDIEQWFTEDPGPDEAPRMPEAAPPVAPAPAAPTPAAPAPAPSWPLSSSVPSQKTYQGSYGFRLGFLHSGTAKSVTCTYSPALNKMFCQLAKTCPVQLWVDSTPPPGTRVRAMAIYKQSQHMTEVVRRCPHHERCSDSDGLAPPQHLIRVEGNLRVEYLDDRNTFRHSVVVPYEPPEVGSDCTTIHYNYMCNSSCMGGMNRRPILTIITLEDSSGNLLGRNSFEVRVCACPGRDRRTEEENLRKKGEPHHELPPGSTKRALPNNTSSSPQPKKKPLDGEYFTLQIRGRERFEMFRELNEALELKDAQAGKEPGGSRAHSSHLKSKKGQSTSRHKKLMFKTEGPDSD
Target sequence in this assay (Q00987 whole entry): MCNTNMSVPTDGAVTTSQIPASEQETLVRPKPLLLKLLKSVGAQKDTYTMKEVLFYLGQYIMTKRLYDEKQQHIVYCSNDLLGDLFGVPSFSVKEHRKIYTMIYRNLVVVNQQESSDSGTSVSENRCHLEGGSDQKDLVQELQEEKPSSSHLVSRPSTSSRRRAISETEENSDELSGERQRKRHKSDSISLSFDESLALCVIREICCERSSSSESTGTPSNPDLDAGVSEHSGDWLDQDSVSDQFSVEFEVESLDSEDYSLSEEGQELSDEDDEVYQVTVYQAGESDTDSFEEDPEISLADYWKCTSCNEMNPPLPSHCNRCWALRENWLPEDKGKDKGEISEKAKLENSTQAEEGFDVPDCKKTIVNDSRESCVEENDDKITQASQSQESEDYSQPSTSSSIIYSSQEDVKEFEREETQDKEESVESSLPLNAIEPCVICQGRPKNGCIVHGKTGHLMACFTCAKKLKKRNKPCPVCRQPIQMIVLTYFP

[2] = molecular target: T1, Tumour suppressor p53/oncoprotein Mdm2; assay: Inhibition of p53 interaction to MDM2 (unknown origin) at 1.4 uM by HTRF assay; assay type: protein assay
Target sequence in this assay (P04637 whole entry, looked up): as the sequence (P04637 whole entry) above
Target sequence in this assay (Q00987 whole entry, looked up): as the sequence (Q00987 whole entry) above

[3] = molecular target: T1, Tumour suppressor p53/oncoprotein Mdm2; assay: Inhibition of p53 interaction to MDM2 (unknown origin) by fluorescence polarization assay; assay type: protein assay
Target sequence in this assay (P04637 whole entry): as the sequence (P04637 whole entry) above
Target sequence in this assay (Q00987 whole entry): as the sequence (Q00987 whole entry) above

A2780 = assay: Antiproliferative activity against human A2780 cells; assay type: functional, cell-based
[4] = Antiproliferative activity against human DLD1 cells; assay type: functional, cell-based; conditions: DLD-1
NCI-H460 = assay: Antiproliferative activity against human NCI-H460 cells; assay type: functional, cell-based
[5] = molecular target: T1, Tumour suppressor p53/oncoprotein Mdm2; assay: Inhibition of His-tagged p53 interaction to GST-tagged MDM2 (unknown origin); assay type: protein assay
Target sequence in this assay (P04637 whole entry): as the sequence (P04637 whole entry) above
Target sequence in this assay (Q00987 whole entry): as the sequence (Q00987 whole entry) above

[6] = molecular target: T1, Tumour suppressor p53/oncoprotein Mdm2; assay: Inhibition of p53 interaction to MDM2 (unknown origin) by HTRF assay in presence of 0.02% bovine serum albumin; assay type: protein assay
Target sequence in this assay (P04637 whole entry): as the sequence (P04637 whole entry) above
Target sequence in this assay (Q00987 whole entry): as the sequence (Q00987 whole entry) above

[7] = molecular target: T1, Tumour suppressor p53/oncoprotein Mdm2; assay: Inhibition of p53 interaction to MDM2 (unknown origin) by HTS assay; assay type: protein assay
Target sequence in this assay (P04637 whole entry): as the sequence (P04637 whole entry) above
Target sequence in this assay (Q00987 whole entry): as the sequence (Q00987 whole entry) above

[8] = molecular target: Tumour suppressor protein p53/Mdm4 (Homo sapiens, UniProt O15151); assay: Inhibition of p53 interaction to MDMX (unknown origin) by fluorescence polarization assay; assay type: protein assay
Sequence of Tumour suppressor protein p53/Mdm4 (P04637 whole entry): as the sequence (P04637 whole entry) above
Sequence of Tumour suppressor protein p53/Mdm4 (O15151 whole entry): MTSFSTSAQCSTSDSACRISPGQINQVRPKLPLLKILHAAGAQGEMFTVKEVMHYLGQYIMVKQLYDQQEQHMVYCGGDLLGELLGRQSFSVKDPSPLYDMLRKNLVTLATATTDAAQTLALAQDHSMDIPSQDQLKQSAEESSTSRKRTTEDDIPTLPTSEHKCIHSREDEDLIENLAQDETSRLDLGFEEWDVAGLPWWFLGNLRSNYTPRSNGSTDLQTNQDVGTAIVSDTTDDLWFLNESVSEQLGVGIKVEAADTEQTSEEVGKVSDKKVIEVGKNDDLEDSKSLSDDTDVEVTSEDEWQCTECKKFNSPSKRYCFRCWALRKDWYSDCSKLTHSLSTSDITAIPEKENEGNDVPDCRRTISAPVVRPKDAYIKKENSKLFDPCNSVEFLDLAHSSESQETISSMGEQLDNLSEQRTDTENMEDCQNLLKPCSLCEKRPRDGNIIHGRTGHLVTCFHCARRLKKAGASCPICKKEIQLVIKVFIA

[9] = molecular target: T1, Tumour suppressor p53/oncoprotein Mdm2; assay: Inhibition of p53 interaction to GST-tagged MDM2 (unknown origin); assay type: protein assay
Target sequence in this assay (P04637 whole entry): as the sequence (P04637 whole entry) above
Target sequence in this assay (Q00987 whole entry): as the sequence (Q00987 whole entry) above

Molecule `CC(C)C1=C(C(=O)N2C[C@H](F)C[C@H]2C(=O)N2CCNC3(CC3)C2)SC2=N[C@@](C)(c3ccc(Cl)nc3)[C@@H](c3ccc(Cl)c(F)c3)N21` has an IC50 [1] of 0.0028 µM.

With `O=C1C[C@H](c2cccc(Cl)c2)[C@@]2(C(=O)Nc3cc(Cl)ccc32)[C@H](c2cccc(Cl)c2)C1` the inhibition [2] was 94.4%.

`CC(C)Cc1cc(CCC(=O)O)ccc1-c1ccc(-c2ccc(OCC(=O)O)c(Cc3ccccc3)c2)c(Cc2ccccc2)c1` gave a Ki [3] of 0.97 µM.

`COc1cccc(C2(Cc3cccc(Cl)c3)C(=O)Nc3cc(Cl)ccc32)c1` (configuration not stated) showed an IC50 [1] of 0.46 µM.

`CCOC(=O)[C@@]1(c2ccc(Cl)cc2)N=C(c2ccc(OC)cc2OC(C)C)N(C(=O)N2CCN(C(C)=O)CC2)[C@@H]1c1ccc(Cl)cc1` gave an IC50 [1] of 0.07 µM.

In the case of `OC1CCc2c(Nc3ccc4c(c3)OCCN4CCc3c[nH]c4ccccc34)ccnc21` (configuration not stated), the IC50 (A2780) is reported as 0.427 µM.

`CC(C)C1=C(C(=O)N2CCC[C@H]2C(=O)N(C)C)SC2=N[C@@](C)(c3ccc(Cl)nc3)[C@@H](c3ccc(Cl)cc3)N21` showed an IC50 [4] of 40.7 µM, an IC50 (NCI-H460) of 1.38 µM and an IC50 [5] of 0.014 µM.

`Cc1ccc(CN2C(=O)c3ccccc3C2(O[C@H]2C=C[C@@H](O)C2)c2ccc(Cl)cc2)cc1` (some centres not stated) gave an IC50 [1] of 1.4 µM.

`C=C(CC)[C@H]1N2CC(=O)N(CCCN(C)C)N=C2C[C@@H](c2cccc(Cl)c2)[C@]12C(=O)Nc1cc(Cl)ccc12` showed an IC50 [1] of 0.1 µM.

In the case of `COC(=O)c1cccc(S(=O)(=O)N2c3ccc(C(=O)N4CCN(C)CC4)c(=O)n3[C@@H](c3ccc(Cl)cc3)[C@H]2c2ccc(Cl)cc2)c1`, the IC50 [1] is reported as 0.46 µM.

`CC(C)(C)C[C@@H]1N[C@@H](C(=O)NCC[C@H](O)CO)[C@@H](c2cc(F)cc(Cl)c2)[C@@]1(C#N)c1ccc(Cl)cc1F` showed an IC50 [6] of 0.165 µM.

For `CC(C)(C)c1ncc(C2=N[C@@](C)(c3ccc(Cl)cc3)[C@@](C)(c3ccc(Cl)cc3)N2C(=O)N2CCN(CCOCCO)CC2)cn1`, the IC50 [1] was 0.031 µM.

`COC(=O)[C@]1(c2ccc(Cl)cc2)N=CN(CC2CC2)[C@H]1c1ccc(Cl)cc1` showed a Ki [7] of 3 µM.

With `CC(C)(C)C[C@@H]1N[C@@H](C(=O)NCCCCO)[C@@H](c2cccc(Cl)c2)[C@@]1(C#N)c1ccc(Cl)cc1` the IC50 [6] was 0.309 µM.

For `CC(C)(C)C[C@H]1N[C@@H](C(=O)NCCN2CCOCC2)[C@H](c2cccc(Cl)c2F)[C@@]12C(=O)Nc1cc(Cl)ccc12`, the Ki [8] was 55 µM.

In the case of `Cc1ccc(F)cc1[C@@H]1NC(=O)C[C@H](c2cc(Cl)cnc2CC(C)(C)C(=O)O)[C@@]12C(=O)Nc1cc(Cl)ccc12`, the IC50 [6] is reported as 0.145 µM.

In the case of `Cc1cccc([C@H]2N(CC(=O)O)C(=O)C[C@@H](c3cccc(Cl)c3)[C@]23C(=O)Nc2cc(Cl)ccc23)c1` (racemic), the IC50 [1] is reported as 0.37 µM.

`Clc1ccc2c(-c3c(-c4ccc5c(c4)OCO5)ncn3CC3CC3)c[nH]c2c1` gave a Ki [7] of 1 µM.

In the case of `Cc1ccc(F)cc1[C@@H]1NC(=O)C[C@H](c2ccccc2OC(C)(C)C(=O)N2CCC(F)(F)CC2)[C@@]12C(=O)Nc1cc(Cl)ccc12`, the IC50 [1] is reported as 0.054 µM.

Molecule `CC(=O)N1CCC(Oc2ccc(I)cc2[C@@H]2NC(=O)C[C@H](c3cccc(Cl)c3)[C@@]23C(=O)Nc2cc(Cl)ccc23)CC1` has an IC50 [9] of 0.034 µM.

`CCOC(=O)N1CCN(C(=O)[C@@]2(Sc3ccccc3)CC(=O)N(Cc3ccc(C#N)cc3)[C@@H]2c2c[nH]c3cc(Cl)ccc23)CC1` showed an IC50 [1] of 1 µM.

For `COc1cc(C(=O)N(C)[C@@H](Cc2c[nH]c3ccccc23)C(=O)N2CCN(c3ccc([N+](=O)[O-])cc3)CC2)c([N+](=O)[O-])cc1OC`, the IC50 [1] was 0.03 µM.

Work on `Cc1ccc(F)cc1[C@H]1NC(=O)C=C(c2cccc(Cl)c2)[C@]12C(=O)Nc1cc(Cl)ccc12` yielded an IC50 [6] of 0.066 µM.

`COc1cccc([C@]2(Cc3cccc(Cl)c3)C(=O)Nc3cc(Cl)ccc32)c1` showed an IC50 [1] of 0.28 µM.

For `Fc1cc(Nc2ccncc2)cc(F)c1NCCc1c[nH]c2ccccc12`, the IC50 (A2780) was greater than 10 µM.
